Test results as given in patent US4510144A, “Methods of imparting immunomodulating activity with dihydrothiazolo purine derivatives” (Newport Pharmaceuticals International, priority 1982, dated 1985).
Like-named read-outs stand apart in the source and are kept apart here.

System: murine spleen cells, LPS induced (B-cells)
Assay: LPS induced lymphocyte proliferation in mouse spleen cells in vitro
Assay type: cell-based, mouse (Balb/C)
Details: for activity at 0.01 µg/mL / activity at 0.1 µg/mL / activity at 1 µg/mL / activity at 2.5 µg/mL / activity at 5 µg/mL / activity at 25 µg/mL / activity at 50 µg/mL: Mus musculus, B-cell
Excerpt: (1) Mitogen-(Lipopolysaccharide, LPS or Con A) induced lymphocyte proliferation using murine spleen cells (in vitro)
1. […] LPS is a mitogen which acts preferentially on B-cells. […] Con A is considered a T-cell mitogen.
1. Balb/C male mice, 7-8 weeks old, are used up to 20-24 weeks of age.
2. The animals are sacrificed by cervical dislocation and the animals' left sides swabbed with 70% ethanol. An incision is made between the lower ribs and pelvis, laterally from front to back, and the skin retracted. Aseptic technique is to be observed from this point on.
3. The spleen is gently removed with sterile forceps. […] When all spleens have been collected and cleaned they are placed in a second petri dish containing 3 ml cold RPMI.
4. Spleen cell suspensions are prepared by gentle mincing of the tissue with a sterile blade and filtering through #100 stainless steel mesh.
6. An aliquot of the above suspension is prepared for cell counting as follows: 0.1 ml of suspension is diluted to 1.0 ml with 3% acetic acid and let stand at room temperature for at least five minutes. The sample is then diluted 1:100 with "Isoton II" (Curtis-Matheson Co.) and counted in a coulter counter.
MURINE SPLENOCYTE STIMULATION WITH CONCANAVALIN A (CON A), LIPOPOLYSACCHARIDE (LPS), AND ALLOGENEIC SPLENOCYTES (LMC).
There is set forth below the standard procedure which should be modified according to the solubility and other properties of the particular compound tested.
Add ~10 ml RPMI to 1.79 g HEPES and vortex until completely dissolved. […] Allow to warm temperature before use.
6. LPS (Sigma, E, coli serotype #011:84)--~1 mg/ml. […] Remove ~10 ml for dissolving HEPES (0.358 g) and filter HEPES solution. Add four 25 mg bottles of LPS to remaining media and incubate at 37° C. for 1 hour. Filter through 0.22 μm filters, add filtered HEPES, aliquot in 2 ml and store at -70° C.
8. Tritiated thymidine (^3 H-TdR, Schwartz-Mann, 6 Ci/mM). Remove a slightly larger volume of ^3 H-TdR than needed from vial with a 1 cc syringe and place volume in the cap of a small sterile plastic tube. […] Vortex thoroughly before adding to plates.
1. Animals are sacrificed by cervical dislocation killing one from each group and processing the cells individually before killing the next animal. Swab each animal with 70% ethanol before surgery. […] Use 8 vertical strokes (or enough to break up all tissue) with Teflon-tipped homogenizer. Filter each sample through a 100 mesh screen into a 50 ml tube. […] After all samples have been spun, vortex each briefly and let sit for 1 hour. Vortex each sample ~5 seconds, waiting ~10 seconds between each sample. Let sit 5 minutes, then pipet cell suspension into 5 ml (12×75 mm) tube being careful not to remove any sediment. Remove 50 ul cell suspension using micropipetter, carefully wipe pipet tip with kimwipe and pipet into 20 ml Isoton in Coulter counter vial, rinsing pipet several times in the Isoton. Add 6 drops of CyMet and swirl vial to mix. Use the following Coulter counter settings: Amplification-1, Threshold-10, and Aperture Current-1. Clean counter with Isoterge the morning of experiment and count background before standardizing with CH 0.60 Hematology Controls. After cell counts are obtained, dilute to 6×10^6 cells/ml with supplemented RPMI and aliquot into 3 tubes for the 3 assays.
1. Pipet 100 μl control media (supplemented RPMI) or appropriate dilution of mitogen (starting with lowest concentration) into microtiter plate using Titertek multi-channel pipetter. Place plates in 37° C. CO2 incubator with CO2 set at 0.5 after each plate has been pipetted. Pipet 100 μl responder cells into wells starting with most dilute mitogen concentration. Place plates in incubator as they are filled and after all plates are in incubator, let sit for 10-20 minutes. Wrap plates with plastic wrap, recover with top, replace in incubator, and reset CO2 to ~0.05. Save ~50 ml supplemented RPMI at 4° C. for thymidine dilution.

Oc1ncnc2c1nc1n2CCS1 [NPT 16416, 3-hydroxy-7,8-dihydrothiazolo-[3,2e]-purine]
activity at 0.01 µg/mL (read-out: Hi Mitogen D/C LPS): 105%
activity at 0.01 µg/mL (read-out: Lo Mitogen D/C LPS): 130%
activity at 0.1 µg/mL (drug 100 ng/ml, LPS 5 μg/ml, drug/control, read-out: Lo Mitogen D/C LPS): 157%
activity at 0.1 µg/mL (drug 100 ng/ml, LPS 100 μg/ml, drug/control, read-out: Hi Mitogen D/C LPS): 114%
activity at 1 µg/mL (drug 1,000 ng/ml, LPS 5 μg/ml, drug/control, read-out: Lo Mitogen D/C LPS): 135%
activity at 1 µg/mL (drug 1,000 ng/ml, LPS 5 μg/ml, read-out: LPS D/C (maximum values)): 201%
activity at 1 µg/mL (drug 1,000 ng/ml, LPS 100 μg/ml, drug/control, read-out: Hi Mitogen D/C LPS): 117%
activity at 2.5 µg/mL (drug 2,500 ng/ml, LPS 5 μg/ml, drug/control, read-out: Lo Mitogen D/C LPS): 136%
activity at 2.5 µg/mL (drug 2,500 ng/ml, LPS 100 μg/ml, drug/control, read-out: Hi Mitogen D/C LPS): 107%
activity at 5 µg/mL (drug 5,000 ng/ml, LPS 5 μg/ml, drug/control, P < 0.05, read-out: Lo Mitogen D/C LPS): 168%
activity at 5 µg/mL (drug 5,000 ng/ml, LPS 100 μg/ml, drug/control, read-out: Hi Mitogen D/C LPS): 105%
activity at 25 µg/mL (drug 25,000 ng/ml, LPS 5 μg/ml, drug/control, P < 0.005, read-out: Lo Mitogen D/C LPS): 249%
activity at 25 µg/mL (drug 25,000 ng/ml, LPS 5 μg/ml, read-out: LPS D/C (maximum values)): 236%
activity at 25 µg/mL (drug 25,000 ng/ml, LPS 100 μg/ml, drug/control, P < 0.025, read-out: Hi Mitogen D/C LPS): 157%
activity at 50 µg/mL (drug 50,000 ng/ml, LPS 5 μg/ml, drug/control, P < 0.005, read-out: Lo Mitogen D/C LPS): 280%
activity at 50 µg/mL (drug 50,000 ng/ml, LPS 100 μg/ml, drug/control, P < 0.005, read-out: Hi Mitogen D/C LPS): 189%
CPM + LPS (drug 10 ng/ml, LPS 5 μg/ml): 1,458 CPM
CPM + LPS (drug 10 ng/ml, LPS 100 μg/ml): 8,603 CPM
CPM + LPS (drug 100 ng/ml, LPS 5 μg/ml): 1,760 CPM
CPM + LPS (drug 100 ng/ml, LPS 100 μg/ml): 8,518 CPM
CPM + LPS (drug 1,000 ng/ml, LPS 5 μg/ml): 1,515 CPM
CPM + LPS (drug 1,000 ng/ml, LPS 100 μg/ml): 8,689 CPM
CPM + LPS (drug 2,500 ng/ml, LPS 5 μg/ml): 1,522 CPM
CPM + LPS (drug 2,500 ng/ml, LPS 100 μg/ml): 7,975 CPM
CPM + LPS (drug 5,000 ng/ml, LPS 5 μg/ml): 1,881 CPM
CPM + LPS (drug 5,000 ng/ml, LPS 100 μg/ml): 7,788 CPM
CPM + LPS (drug 25,000 ng/ml, LPS 5 μg/ml): 2,789 CPM
CPM + LPS (drug 25,000 ng/ml, LPS 100 μg/ml): 11,683 CPM
CPM + LPS (drug 50,000 ng/ml, LPS 5 μg/ml): 3,132 CPM
CPM + LPS (drug 50,000 ng/ml, LPS 100 μg/ml): 14,065 CPM
effect on B-cell response / LPS induced proliferation, in words (in vitro): enhance B-cell proliferation
augmentation of LPS induced lymphocyte proliferation (in vitro, mouse spleen cells): 30-180%
effect on B-cell response / LPS induced proliferation, in words (in vitro, listed as Ia): stimulating the B-cell response
